conditions: not given

Compound | boiling point [°C] | log10 Henry constant (atm·m³/mol) | log10 Koc (L/kg) | log10 vapour pressure (mmHg) | melting point [°C] | ready biodegradability | log10 Koa
BrC(Br)Br | 149 | -3.27 | 2.06 | 0.732 | 8 | not readily biodegradable | 
CCCCCCCCCCCCCCCC(C)O (configuration not stated) |  |  |  |  | 54 |  | 
COc1cc(C=CC(=O)O)ccc1O |  |  |  |  |  | readily biodegradable | 
CCC[Si](Cl)(Cl)Cl | 124 |  |  | 1.46 |  |  | 
CC(C)CCCBr | 145 |  |  |  |  |  | 
CCCCCCC(O)C(=O)O (configuration not stated) |  |  |  |  | 70 |  | 
CC[Si](Cl)(CC)CC | 144 |  |  | 0.83 |  |  | 
c1ccc2c(c1)CCO2 | 188 |  |  |  | -21.5 |  | 
CC(=O)O[C@@H](C(=O)O)c1ccccc1 |  |  |  |  | 97 |  | 
COc1ccc2c(c1O)[C@]13CCN(C)[C@H](C2)[C@@H]1C=CC(=O)C3 |  |  |  |  | 152 |  | 
FCBr | 19 |  |  |  |  |  | 
CCCCCCCCc1ccc(Nc2ccc(CCCCCCCC)cc2)cc1 |  |  |  |  |  | not readily biodegradable | 
CC(C)(C)c1cc(C(=O)O)c(O)c(C(C)(C)C)c1 |  |  |  |  |  | not readily biodegradable | 
CCCCCCCCCCCC(=O)OOC(=O)CCCCCCCCCCC |  |  |  |  | 49 | readily biodegradable | 
CCOC(=O)c1ccccc1S(=O)(=O)NC(=O)Nc1nc(Cl)cc(OC)n1 |  |  | 2.04 |  |  |  | 
CCCCCCCCCCCCCCCCCCCCCCCCCCCCCC(=O)O |  |  |  |  | 93.6 |  | 
CCCCCCCCCCCCCCCCCO | 333 |  |  |  | 53.8 | readily biodegradable | 
Clc1cc(Cl)c(Cl)c(-c2ccc(Cl)c(Cl)c2Cl)c1 |  | -4.43 |  |  |  |  | 
OCc1c[nH]c2ccccc12 |  |  |  |  | 97.5 |  | 
O=C1C(O)=C(O)C(=O)c2ccccc21 |  |  |  |  | 282 |  | 

Compound | boiling point [°C] | log10 Henry constant (atm·m³/mol) | log10 Koc (L/kg) | log10 vapour pressure (mmHg) | melting point [°C] | ready biodegradability | log10 Koa
S=C(S)NCCNC(=S)S |  |  |  |  |  | not readily biodegradable | 
COC1CCC=CO1 (configuration not stated) | 118 |  |  | 1.04 | 16 |  | 
CCCCOC(=O)c1ccc(C(=O)OCCCC)c(C(=O)OCCCC)c1 |  |  |  |  |  | readily biodegradable | 
Nc1ccc([N+](=O)[O-])cc1[N+](=O)[O-] | 334 |  |  |  | 180 | not readily biodegradable | 
N#CCCCCCC#N |  |  |  |  | -31.4 |  | 
CCCSSCCC | 194 |  |  | -0.291 | -85.6 |  | 
C=C(C)c1cc(=O)c(O)ccc1CC=C(C)C |  |  |  |  | 71.5 |  | 
CC(C)(C)c1ccncc1 | 196 |  |  |  | -41 |  | 
COc1ccccc1OCC(O)CO (configuration not stated) |  |  |  |  | 78.5 |  | 
FC(F)=C(F)C(F)(F)C(F)(F)C(F)(F)C(F)(F)C(F)(F)F | 81 |  |  |  |  |  | 
CC(C(=O)O)c1ccc(C2CCC/C(=N\O)C2)cc1 (configuration not stated) |  |  |  |  | 178 |  | 
O=[N+]([O-])c1cc(Cl)cc(Cl)c1 |  |  |  |  | 65.4 |  | 
C#CC(C)C | 26.3 |  |  |  | -89.7 |  | 
CC1=CC[C@@H]2CC1OC2(C)C | 184 |  |  |  |  |  | 
CC1CC(=O)C(C)(C)C1 (configuration not stated) | 158 |  |  |  | -40.6 |  | 
CC(C)(C)SC(C)(C)C | 149 |  |  |  | -9 |  | 
Cc1cccc2cc3ccc4ccccc4c3cc12 |  |  |  |  | 118 |  | 
Clc1ccc(-c2ccc(Cl)c(Cl)c2)cc1Cl |  | -5.03 |  | -4.78 |  |  | 9.7
O=[N+]([O-])c1ccccc1Nc1ccccc1 |  |  |  | -5 | 75 |  | 
CC1(C)OC(=O)NC1=O |  |  |  |  | 76.5 |  | 

Compound | boiling point [°C] | log10 Henry constant (atm·m³/mol) | log10 Koc (L/kg) | log10 vapour pressure (mmHg) | melting point [°C] | ready biodegradability | log10 Koa
Fc1ccccc1C1=NCC(=S)N(CC(F)(F)F)c2ccc(Cl)cc21 |  |  |  |  | 138 |  | 
CC1(C)CCCC(C)(C)N1 | 156 |  |  |  |  |  | 
Cc1cc(Br)ccc1N | 240 |  |  |  | 59.5 |  | 
C=C(C)c1ccccc1C | 175 |  |  |  |  |  | 
C[C@]12CC[C@@H]3c4ccc(OC5CCCC5)cc4CC[C@H]3[C@@H]1C[C@@H](O)[C@@H]2O |  |  |  |  | 99 |  | 
CC1CCCC(C)C1 (configuration not stated) | 122 |  |  | 1.3 |  |  | 
CC1OCCO1 | 81.5 |  |  |  |  |  | 
CCc1c(C(=O)O)c(=O)cnn1-c1ccc(Cl)cc1 |  |  |  |  | 269 |  | 
CC(C)(C)CC(C)(C)c1ccc(O)cc1 |  |  |  | -3.32 | 84.5 | not readily biodegradable | 
CCCCCOC(=O)Nc1ccccc1 |  |  | 2.61 |  |  |  | 
COCCl | 59.5 |  |  | 1.48 | -104 | readily biodegradable | 
O=C(O)c1ccccc1 | 249 |  | 1.5 | -3.15 | 122 | readily biodegradable | 
CC=CC#N | 120 |  |  | 1.5 |  |  | 
CCC(=O)Nc1ccc(Cl)c(Cl)c1 | 351 |  | 2.17 | -6.04 | 92 | readily biodegradable | 
Nc1ccc(/C=C/c2ccc(N)cc2S(=O)(=O)O)c(S(=O)(=O)O)c1 |  |  |  |  |  | not readily biodegradable | 
Cc1ccc(Cl)c([N+](=O)[O-])c1 | 261 |  |  |  | 7 |  | 
COc1ccc(CCCCO)cc1 |  |  |  |  | 3.5 |  | 
CCOC(=O)c1ccccc1 | 212 |  | 2.3 | -0.574 | -34 |  | 

same assay, conditions: fish

Compound | log10 biotransformation half-life (days) | log10 BCF
CC12CCCC1C1CCC3CCCCC3(C)C1CC2 (configuration not stated) | 1.67 | 
CCC(C)c1cc([N+](=O)[O-])cc([N+](=O)[O-])c1O (configuration not stated) |  | 1.79
Nc1cccnc1 |  | 0.32
COC(=O)c1ccccc1C(=O)c1ccccc1 | -1.3 | 1.15
Oc1c(Cl)cc(Cl)c2ccccc12 |  | 1.35
BrC(Br)Br | -0.7 | 1.13
O=[N+]([O-])c1cc(Cl)cc(Cl)c1 | 0.57 | 2.23
Clc1ccc(-c2ccc(Cl)c(Cl)c2)cc1Cl | 1.35 | 4.62
CC(C)(C)CC(C)(C)c1ccc(O)cc1 | -0.04 | 2.46
CCC(=O)Nc1ccc(Cl)c(Cl)c1 |  | 1.84

From the OPERA property sets (Mansouri et al. 2018)
